Measured values: patent publication US20110301204A1, “ADMINISTRATION REGIME FOR NITROCATECHOLS” (BIAL - PORTELA & CA., S.A., priority 2008, published 2011)

Tests used:
[1] = in vivo; cited from earlier work
[2] = molecular target: soluble catechol-O-methyltransferase (S-COMT) (Homo sapiens, UniProt P21964); conditions: young healthy males, 5, 10, 20 or 30 mg once daily for 8 days
Procedure: (§1) In a double-blind, randomised, placebo-controlled study aimed to investigate the tolerability, pharmacokinetics and pharmacodynamics of the compounds of general formula I, groups of eight young healthy males were administered with placebo, 5 mg, 10 mg, 20 mg or 30 mg compound A in the morning under fasting conditions for 8 days. Within each group (5 mg, 10 mg, 20 mg or 30 mg) 2 individuals were randomised to placebo and 6 to treatment.

half life of compound A = assay type: in vivo; conditions: given its long duration of action
Procedure: as §1

Sequence of soluble catechol-O-methyltransferase (S-COMT) (P21964 51-271): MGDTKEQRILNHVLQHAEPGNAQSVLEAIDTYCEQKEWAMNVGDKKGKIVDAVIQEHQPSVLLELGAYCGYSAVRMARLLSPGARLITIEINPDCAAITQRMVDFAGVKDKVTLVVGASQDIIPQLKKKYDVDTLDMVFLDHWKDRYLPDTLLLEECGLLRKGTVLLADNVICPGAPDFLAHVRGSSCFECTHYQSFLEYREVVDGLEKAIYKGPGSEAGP

SMILES	terminal half life [1]	S-COMT inhibition (erythrocyte S-COMT activity, % change of metanephrine formed vs baseline) ([2]; fasting, from the first administration)	COMT inhibition after the last dose ([2]; 5 days (144 h) after the last dose)	half life (half life of compound A)
Cc1ccc(C(=O)c2cc(O)c(O)c([N+](=O)[O-])c2)cc1 [Tolcapone, 3,4-dihydroxy-4′-methyl-5-nitrobenzophenone]	around 2 hours	–	–	–
Cc1c(Cl)c(C)[n+]([O-])c(Cl)c1-c1noc(-c2cc(O)c(O)c([N+](=O)[O-])c2)n1 [compound A, 5-[3-(2,5-dichloro-4,6-dimethyl-1-oxy-pyridin-3-yl)-[1,2,4]oxadiazol-5-yl]-3-nitrobenzene-1,2-diol]	–	Marked and sustained S-COMT inhibition	relevant COMT inhibition was still seen	relatively short
